Assay results taken from ChEMBL document CHEMBL1212921, “Design, synthesis, enzyme-inhibitory activity, and effect on human cancer cells of a novel series of jumonji domain-containing protein 2 histone demethylase inhibitors” (J Med Chem, 2010).
Active and inactive are the calls of the source. The calls are words filed in the database; no cut-off is given here.

How the values were obtained:
[1] = target: T1, Lysine-specific demethylase 4A (Homo sapiens, UniProt O75164); test: Inhibition of recombinant His-tagged JMJD2A expressed in Escherichia coli Rosetta 2 (DE3) pLysS cells by formaldehyde dehydrogenase-coupled assay
T1 sequence (O75164 whole entry): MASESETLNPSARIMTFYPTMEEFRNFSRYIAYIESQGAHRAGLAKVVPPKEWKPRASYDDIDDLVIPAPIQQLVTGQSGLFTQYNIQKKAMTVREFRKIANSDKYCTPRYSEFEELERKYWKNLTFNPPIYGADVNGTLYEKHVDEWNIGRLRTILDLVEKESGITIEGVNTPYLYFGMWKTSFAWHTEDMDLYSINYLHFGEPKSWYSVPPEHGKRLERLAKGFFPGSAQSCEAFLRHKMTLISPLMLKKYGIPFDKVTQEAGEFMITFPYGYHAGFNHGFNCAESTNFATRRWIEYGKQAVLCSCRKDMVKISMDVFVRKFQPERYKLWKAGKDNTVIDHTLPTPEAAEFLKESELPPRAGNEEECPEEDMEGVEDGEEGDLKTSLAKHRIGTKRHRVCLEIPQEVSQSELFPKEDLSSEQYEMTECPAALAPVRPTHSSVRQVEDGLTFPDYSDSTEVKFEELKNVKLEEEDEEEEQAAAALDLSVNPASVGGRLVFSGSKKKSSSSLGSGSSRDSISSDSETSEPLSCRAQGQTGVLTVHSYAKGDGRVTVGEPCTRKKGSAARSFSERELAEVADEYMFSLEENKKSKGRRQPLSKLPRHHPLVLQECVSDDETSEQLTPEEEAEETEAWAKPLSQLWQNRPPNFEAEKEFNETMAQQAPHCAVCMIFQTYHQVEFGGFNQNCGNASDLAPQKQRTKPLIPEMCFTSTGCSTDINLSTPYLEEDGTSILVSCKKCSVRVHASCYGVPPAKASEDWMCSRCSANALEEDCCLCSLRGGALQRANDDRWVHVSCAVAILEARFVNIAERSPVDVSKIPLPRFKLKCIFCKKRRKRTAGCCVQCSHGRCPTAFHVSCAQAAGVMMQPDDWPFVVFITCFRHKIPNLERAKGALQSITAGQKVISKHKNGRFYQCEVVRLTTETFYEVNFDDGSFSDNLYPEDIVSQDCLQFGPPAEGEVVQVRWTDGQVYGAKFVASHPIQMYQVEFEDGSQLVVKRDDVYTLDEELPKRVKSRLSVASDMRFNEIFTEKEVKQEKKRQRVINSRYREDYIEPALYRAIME

[2] = target: T2, Lysine-specific demethylase 4C (Homo sapiens, UniProt Q9H3R0); test: Inhibition of recombinant His-tagged JMJD2C expressed in Escherichia coli Rosetta 2 (DE3) pLysS cells by formaldehyde dehydrogenase-coupled assay
T2 sequence (Q9H3R0 whole entry): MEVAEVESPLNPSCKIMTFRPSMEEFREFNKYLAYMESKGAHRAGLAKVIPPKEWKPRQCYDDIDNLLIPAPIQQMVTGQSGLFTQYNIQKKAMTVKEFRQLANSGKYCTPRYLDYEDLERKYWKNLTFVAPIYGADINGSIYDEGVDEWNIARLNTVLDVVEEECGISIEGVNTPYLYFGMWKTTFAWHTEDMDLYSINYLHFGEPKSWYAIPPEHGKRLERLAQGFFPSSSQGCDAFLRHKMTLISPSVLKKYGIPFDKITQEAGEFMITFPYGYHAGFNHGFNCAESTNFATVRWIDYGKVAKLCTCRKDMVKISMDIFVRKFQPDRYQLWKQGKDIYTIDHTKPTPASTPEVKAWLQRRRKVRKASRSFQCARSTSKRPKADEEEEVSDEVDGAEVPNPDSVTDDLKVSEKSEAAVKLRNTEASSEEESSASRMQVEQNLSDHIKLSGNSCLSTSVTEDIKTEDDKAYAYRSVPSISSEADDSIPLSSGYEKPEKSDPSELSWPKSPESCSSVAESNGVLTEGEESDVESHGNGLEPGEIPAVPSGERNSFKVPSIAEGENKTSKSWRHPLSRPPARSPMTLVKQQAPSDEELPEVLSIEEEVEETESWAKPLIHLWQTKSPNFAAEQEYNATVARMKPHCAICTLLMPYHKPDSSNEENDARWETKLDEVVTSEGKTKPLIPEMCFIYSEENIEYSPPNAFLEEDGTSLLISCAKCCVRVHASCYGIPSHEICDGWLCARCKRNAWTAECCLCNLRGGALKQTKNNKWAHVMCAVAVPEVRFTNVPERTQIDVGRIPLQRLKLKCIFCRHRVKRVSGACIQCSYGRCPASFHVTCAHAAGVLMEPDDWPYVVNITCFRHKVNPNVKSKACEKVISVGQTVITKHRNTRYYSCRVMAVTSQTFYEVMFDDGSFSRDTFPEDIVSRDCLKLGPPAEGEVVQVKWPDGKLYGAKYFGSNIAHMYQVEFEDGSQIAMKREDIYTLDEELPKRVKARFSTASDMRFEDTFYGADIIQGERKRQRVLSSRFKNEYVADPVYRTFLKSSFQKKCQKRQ

LNCaP [3] = test: Cytotoxicity against human LNCAP cells expressing JMJD2C at 100 uM after 72 hrs by Alamar blue assay; assay type: functional, cell-based
LNCaP [4] = test: Cytotoxicity against human LNCAP cells expressing JMJD2C at 30 uM after 72 hrs by Alamar blue assay; assay type: functional, cell-based
Egl nine homolog 1 = Egl nine homolog 1 (Homo sapiens, UniProt Q9GZT9); test: Inhibition of human recombinant PHD2 expressed in Sf9 cells by time-resolved fluorescence assay
Sequence of Egl nine homolog 1 (Q9GZT9 whole entry): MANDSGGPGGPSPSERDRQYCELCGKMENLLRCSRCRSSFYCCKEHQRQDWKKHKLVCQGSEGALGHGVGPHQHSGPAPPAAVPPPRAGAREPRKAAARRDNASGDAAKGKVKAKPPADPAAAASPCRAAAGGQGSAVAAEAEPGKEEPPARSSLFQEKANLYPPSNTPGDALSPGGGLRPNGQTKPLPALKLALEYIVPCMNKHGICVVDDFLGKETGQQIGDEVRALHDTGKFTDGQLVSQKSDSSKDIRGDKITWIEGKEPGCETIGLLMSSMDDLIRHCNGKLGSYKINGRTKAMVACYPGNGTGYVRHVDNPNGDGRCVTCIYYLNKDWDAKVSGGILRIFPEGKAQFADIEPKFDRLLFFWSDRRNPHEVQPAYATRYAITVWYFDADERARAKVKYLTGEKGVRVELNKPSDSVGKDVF

Prolyl hydroxylase EGLN2 = Prolyl hydroxylase EGLN2 (Homo sapiens, UniProt Q96KS0); test: Inhibition of human recombinant PHD1 expressed in Sf9 cells by time-resolved fluorescence assay
Sequence of Prolyl hydroxylase EGLN2 (Q96KS0 whole entry): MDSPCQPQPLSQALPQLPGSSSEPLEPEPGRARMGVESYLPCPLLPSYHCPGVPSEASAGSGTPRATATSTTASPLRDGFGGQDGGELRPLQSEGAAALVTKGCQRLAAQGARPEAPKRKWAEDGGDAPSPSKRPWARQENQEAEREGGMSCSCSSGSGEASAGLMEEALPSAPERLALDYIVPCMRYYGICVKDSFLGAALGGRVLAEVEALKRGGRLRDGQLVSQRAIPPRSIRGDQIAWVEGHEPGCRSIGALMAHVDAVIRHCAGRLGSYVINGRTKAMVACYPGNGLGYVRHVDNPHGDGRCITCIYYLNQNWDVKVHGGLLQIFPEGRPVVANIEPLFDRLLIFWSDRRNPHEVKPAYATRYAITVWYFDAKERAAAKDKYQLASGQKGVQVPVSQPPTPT

LNCaP [5] = test: Cytotoxicity against human LNCAP cells expressing JMJD2C after 72 hrs by Alamar blue assay; assay type: functional
HCT-116 = test: Cytotoxicity against human HCT116 cells at 30 uM after 72 hrs by Alamar blue assay; assay type: functional, cell-based
PC-3 = test: Cytotoxicity against human PC3 cells at 30 uM after 72 hrs by Alamar blue assay; assay type: functional, cell-based
KYSE-150 = test: Cytotoxicity against human KYSE-150 cells at 30 uM after 72 hrs by Alamar blue assay; assay type: functional, cell-based

| Compound | IC50 [1] [µM] | IC50 [2] [µM] | IC50 (Egl nine homolog 1) [µM] | IC50 (Prolyl hydroxylase EGLN2; read-out: IC50) [µM] | further results |
| --- | --- | --- | --- | --- | --- |
| CN(C)CCCCCCCCC(=O)N(O)CCC(=O)O | 3 | 1 | > 100 | > 100 | Activity (LNCaP [3]): inactive; Activity (LNCaP [4]): inactive |
| N[C@@H]1C[C@H]1c1ccc(OCC[C@H](NC(=O)c2ccccc2)C(=O)NCc2ccccc2)cc1 | – | – | – | – | GI50 (LNCaP [5]): 36 µM |
| CN(C)CCCCCCCCCCC(=O)N(O)CCC(=O)O | 11 | 5.2 | – | – | – |
| CCCCN(C)CCCCCCCCC(=O)N(O)CCC(=O)O | 3.2 | – | > 100 | > 100 | – |
| CN(C)CCCCCCC(=O)N(O)CCC(=O)O | 8.7 | 2.7 | – | – | – |
| CN(C)CCCCCCCCCCCC(=O)N(O)CCC(=O)O | 22 | 8.8 | – | – | – |
| O=C(O)c1ccnc(C(=O)O)c1 | – | – | – | – | IC50 (Prolyl hydroxylase EGLN2): 1.5 µM |
| COC(=O)c1ccnc(C(=O)OC)c1 | – | – | – | – | Activity (LNCaP [3]): inactive; Activity (LNCaP [4]): inactive; Activity (HCT-116): inactive; Activity (PC-3): inactive |
| COC(=O)CCN(O)C(=O)CCCCCCCCN(C)C | – | – | – | – | Activity (LNCaP [3]): inactive; Activity (LNCaP [4]): inactive; Activity (HCT-116): inactive; Activity (KYSE-150): inactive; Activity (PC-3): inactive |

Further lines, with some results ahead:

| IC50 [1] [µM] | IC50 [2] [µM] | IC50 (Egl nine homolog 1) [µM] | IC50 (Prolyl hydroxylase EGLN2; read-out: IC50) [µM] | Compound | further results |
| --- | --- | --- | --- | --- | --- |
| 120 | 74 | – | – | CC(C)CCCCCC(=O)N(O)CCC(=O)O | – |
| 14 | 34 | > 100 | > 100 | CC(=O)N(O)CCC(=O)O | – |
| 6 | 1.5 | > 100 | > 100 | CN(C)CCCCCCCC(=O)N(O)CCC(=O)O | – |
| 17 | 10 | – | – | CN(C)CCCCCC(=O)N(O)CCC(=O)O | – |
| 8.1 | 2 | > 100 | > 100 | CN(C)CCCCCCCCN(O)C(=O)CCC(=O)O | – |
| 2 | 1.3 | – | – | CN(CCCCCCCCC(=O)N(O)CCC(=O)O)Cc1ccccc1 | – |
| 5.5 | 1.6 | > 100 | > 100 | CN(C)CCCCCCCCCC(=O)N(O)CCC(=O)O | – |
| 4.4 | 1.7 | – | – | CNCCCCCCCCC(=O)N(O)CCC(=O)O | – |
| 250 | 500 | – | 2.1 | O=C(O)CNC(=O)C(=O)O [N-OXALYLGLYCINE] | – |
